Assays:
[1] = test system: IL-17, TNFα, IL-4; experiment: Lung cytokine levels by cytometric bead array; format: in vivo; settings: ova s/c mice
Description: The change of cytokine expression caused by compounds may be investigated in the lung of Ova S/C mice. Therefore, lungs of treated and non-treated asthmatic mice may be harvested, homogenized and cleared by centrifugation. Cytokines may be identified and quantified with specific antibodies and flow cytometry.
Anti-inflammatory properties of compounds in respect to cytokine production were investigated after the AHR measurement by harvesting the lungs of treated and non-treated Ova S/C mice (N=10). Whole lungs were homogenized in 200 μL of T-PER® tissue protein extraction reagent (Thermo Fisher Scientific Inc., Rockford, Ill.) containing 1× protease inhibitor cocktail using a hand-held tissue homogenizer. Homogenized lung samples were centrifuged at 10,000 RPM for 5 minutes to pellet cell/tissue debris. Tissue supernatant was collected for cytokine analysis using BD cytometric bead array mouse Th1/Th2/Th17 cytokine kit (BD Biosciences, San Jose, Calif.) following manufacturer's instruction. Data were analyzed using GraphPad Prism 4 (GraphPad Software, San Diego, Calif.) and expressed as mean±SEM. One-way analysis of variance (ANOVA) with Dunnet post hoc test was performed for statistical difference for multiple groups. […] Data represent mean±SEM from 10 mice in each group. *, **, and *** indicate p<0.05, p<0.01, and p<0.001 significance. The ova s/c mice expressed higher levels of IFN-γ, IL-6, and IL-2 but the change was not significant in comparison to normal mice.

[2] = test system: α1β3γ2 or α4β3γ2 GABAAR expressing HEK293T cells; experiment: Automated patch clamp with EC20 GABA in HEK293T cells; format: cell-based; settings: GABA EC20, 3 seconds application
[3] = test system: human airway smooth muscle; experiment: Relaxation of acetylcholine contracted human airway smooth muscle strips; settings: EC50 acetylcholine, 100 μM compound, 15-60 minutes
[4] = test system: GABAA receptor subtypes α1β3γ2, α2β3γ2, α3β3γ2, α4β3γ2 and α5β3γ2; experiment: Two-electrode voltage clamp, modulation of GABA (EC3-5) elicited currents in Xenopus oocytes; format: cell-based
Description: Compounds having selective activity bias for α4 and α5-GABAAR can be identified. Patch clamp assays are used to quantify chloride flux induced inward currents resulting from agonism of GABAAR containing single α-subunits. […] For electrophysiological experiments with Xenopus oocytes (Ramerstorfer et al. European journal of pharmacology 2010, 636, 8-27) mature female Xenopus laevis (Nasco, Fort Atkinson, Wis., USA) were anaesthetized in a bath of ice-cold 0.17% Tricain (Ethyl-m-aminobenzoate) before decapitation and transfer of the frog's ovary to ND96 medium (96 mM NaCl, 2 mM KCl, 1 mM MgCl2, 5 mM HEPES; pH 7.5). Following incubation in 1 mg/ml collagenase (Sigma-Aldrich, St. Louis, Mo., USA) for 30 minutes, stage 5 to 6 oocytes were singled out of the ovary and defolliculated using a platinum wire loop. […] Maximum currents measured in mRNA injected oocytes were in the microampere range for all receptor subtypes. […] Data were digitized using a Digidata 1322A or 1550 data acquisition system (Axon Instruments, Union City, Calif., USA), recorded using Clampex 10.5 software (Molecular Devices, Sunnyvale, Calif., USA), and analyzed using Clampfit 10.5 and GraphPad Prism 6.0 (La Jolla, Calif., USA) software. […]

C[C@H]1N=C(c2ccccc2F)c2cc(Br)ccc2-n2cnc(C(=O)O)c21 [GL-II-93, (R)-8-bromo-6-(2-fluorophenyl)-4-methyl-4H-benzo[f]imidazo[1,5-a][1,4]diazepine-3-carboxylic acid]
level of IL-4 in the mouse lung [1]: reduced the levels of IL-17, TNFα, and IL-4 | level of IL-17 in the mouse lung [1]: reduced the levels of IL-17 | level of TNFα in the mouse lung [1]: reduced the levels of IL-17, TNFα

CCOC(=O)c1ncn2c1[C@@H]1CCCN1C(=O)c1cc(O)ccc1-2 [RJ-02-50, ethyl (S)-7-hydroxy-9-oxo-11,12,13,13a-tetrahydro-9H-benzo[e]imidazo[5,1-c]pyrrolo[1,2-a][1,4]diazepine-1-carboxylate]
GABAA receptor subtype selectivity, current response [2]: positive α4β3γ2-selective GABAA receptor modulator

C#Cc1ccc2c(c1)C(c1ccccc1F)=N[C@H](C)c1c(C(=O)O)ncn1-2 [SH-053-2′F-R-CH3-Acid, (R)-8-ethynyl-6-(2-fluorophenyl)-4-methyl-4H-benzo[f]imidazo[1,5-a][1,4]diazepine-3-carboxylic acid]
human airway smooth muscle contractile force [3]: reduced the constriction of human airway smooth muscle after 15 minutes for a period of at least 60 minutes | GABAA receptor subtype selectivity, modulation of GABA elicited currents [4]: positive α5β3γ2-selective GABAA receptor modulator

— patent US11447495B2, “Substituted benzo[f]imidazo[1,5-a][1,4]diazepines as GABA(a) receptor modulators” (priority 2016, dated 2022)
